# Assay results reported in patent publication US20110178117A1 (Merck Sharp & Dohme Corp., priority 2008, published 2011).
# pEC50: −log10 of the molar value.
# Target: T1, recombinant human mGluR2 (Homo sapiens, UniProt Q14416)
# T1 construct: expressed in transfected cells
# Assay: FLIPR Ca2+ mobilization assay, potentiation of glutamate response
# Assay type: cell-based
# Details: CHO dhfr- cells expressing human mGluR2 and Gα16; potentiation after EC20 glutamate (900 nM); read-out: Representative FLIPR EC50 Values: EC50
# Protocol: The compounds of the present invention may be tested in a fluorescence laser imaging plate reader (FLIPR) based assay. This assay is a common functional assay to monitor Ca^2+ mobilization in whole cells expressing recombinant receptor coupled with a promiscuous G-protein. CHO dhfr-cells stably expressing recombinant human mGluR2 and Gα16 loaded with Fluo-4 AM (Invitrogen, Carlsbad Calif.) are treated with dose responses of compounds and the Ca^2+ response is monitored on a FLIPR384 (Molecular Devices, Sunnydale Calif.) for agonist activity. The potentiation response is monitored after a subsequent addition of an EC20 concentration of glutamate (900 nM). The maximum calcium response at each concentration of compound for agonist or potentiation are plotted as dose responses and the curves are fitted with a four parameters logistic equation giving EC50 and Hill coefficient using the iterative non linear curve fitting software program.
# T1 sequence (Q14416 19-872): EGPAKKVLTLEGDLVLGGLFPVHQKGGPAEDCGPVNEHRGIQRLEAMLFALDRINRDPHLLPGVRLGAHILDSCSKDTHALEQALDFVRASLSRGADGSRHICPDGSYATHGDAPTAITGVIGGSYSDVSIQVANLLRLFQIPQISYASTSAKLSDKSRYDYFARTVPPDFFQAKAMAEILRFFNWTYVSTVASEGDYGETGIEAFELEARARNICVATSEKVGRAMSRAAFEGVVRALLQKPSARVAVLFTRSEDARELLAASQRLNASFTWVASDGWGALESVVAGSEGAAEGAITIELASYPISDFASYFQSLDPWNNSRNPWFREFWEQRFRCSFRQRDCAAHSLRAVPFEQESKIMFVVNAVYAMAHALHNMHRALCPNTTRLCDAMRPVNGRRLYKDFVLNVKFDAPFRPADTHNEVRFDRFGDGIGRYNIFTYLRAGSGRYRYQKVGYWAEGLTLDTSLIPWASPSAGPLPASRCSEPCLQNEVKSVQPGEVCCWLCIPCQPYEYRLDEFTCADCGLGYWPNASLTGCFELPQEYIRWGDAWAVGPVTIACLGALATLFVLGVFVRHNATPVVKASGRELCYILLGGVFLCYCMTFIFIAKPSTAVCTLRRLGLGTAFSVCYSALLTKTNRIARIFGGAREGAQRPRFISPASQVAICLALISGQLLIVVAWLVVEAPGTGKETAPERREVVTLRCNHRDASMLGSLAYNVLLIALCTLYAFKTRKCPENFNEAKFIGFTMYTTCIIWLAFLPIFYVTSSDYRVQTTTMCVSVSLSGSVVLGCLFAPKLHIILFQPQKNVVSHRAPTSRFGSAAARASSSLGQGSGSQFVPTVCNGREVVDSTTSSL
row,Molecule,pEC50
1,"CCCCCC[C@@H]1Cn2c(nc3ccccc32)O1 [Example 1-5, (2R)-2-hexyl-2,3-dihydro[1,3]oxazolo[3,2-a]benzimidazole]",7.68
2,"CCCCCC[C@@H]1Cn2c(nc3cc(C#N)ccc32)O1 [Example 1-19, (2R)-2-hexyl-2,3-dihydro[1,3]oxazolo[3,2-a]benzimidazole-7-carbonitrile]",7.96
3,"COCCCCC1Cn2c(nc3ccccc32)O1 (centres unmarked) [Example 1-21, 2-(4-methoxybutyl)-2,3-dihydrobenzo[d]oxazolo[3,2-a]imidazole]",5.51
4,"(R)-2-(6-fluorohexyl)-2,3-dihydrobenzo oxazolo[3,2-a]imidazole-7-carbonitrile [Example 1-31]",7.17

# Further lines, results first:
row,pEC50,Molecule
1,5.67,"c1ccc2c(c1)nc1n2CC(CC2CCCCC2)O1 (centres unmarked) [Example 3-5, 2-(cyclohexylmethyl)-2,3-dihydro[1,3]oxazolo[3,2-a]benzimidazole]"
2,6.42,"CC(C)(C)OC(=O)N1CCCC(C2Cn3c(nc4ccccc43)O2)C1 (centres unmarked) [Example 3-7, tert-butyl 3-(2,3-dihydro[1,3]oxazolo[3,2-a]benzimidazole-2-yl)piperidine-1-carboxylate]"
3,6.21,"CCCCCCC1(C)Cn2c(nc3ccccc32)O1 (centres unmarked) [Example 4-2, 2-hexyl-2-methyl-2,3-dihydro[1,3]oxazolo[3,2-a]benzimidazole]"
4,5.64,CCCCCCC1(CC)Cn2c(nc3ccccc32)O1 (centres unmarked) [Example 4-3]
